Laboratory results published in patent US6300368A, “Anilide derivatives and antiarrhythmic agents containing the same” (priority 1998, dated 2001).
Read-outs that look alike come from different tables or passages of the source.

Key:
ventricular function = conditions: cited from earlier work
Purkinje's fiber = assay: Effects on ventricle: action potential of Purkinje's fiber from dog right ventricular free wall (Pharmacological Trial 2); format: cell-based; conditions: Canis lupus familiaris
Source text: Pharmacological Trial 2: Evaluation of Effects on Ventricle
Method: Purkinje's fiber specimen excised from the right ventricular free wall of dog, perfused with normal Tyrode solution and driven by electrical stimulation (fundamental frequency=1 Hz) was used. Standard glass microelectrode was used to record action potential.

SMILES: CC(=O)Nc1ccc(OCCNC2CCCCC2)cc1 [4'-[2-(cyclohexylamino)ethoxy] acetanilide]
- action on ventricular function (ventricular function): act suppressively on ventricular function

SMILES: CC(C)N(CCC(C(N)=O)(c1ccccc1)c1ccccn1)C(C)C (centres unmarked) [Disopyramido]
- inhibition at 30 µM (Purkinje's fiber; read-out: suppression of Vmax (maximum rate of rise for action potential)): 33%

SMILES: CN(CCOc1ccc(NS(C)(=O)=O)cc1)CCc1ccc(NS(C)(=O)=O)cc1 [Dofetilide]
- activation at 10 µM (Purkinje's fiber; read-out: extension of APD50 (duration to repolarize 50%)): 57%
- activation at 10 µM (Purkinje's fiber; read-out: extension of APD75 (duration to repolarize 75%)): 45%
- activation at 10 µM (Purkinje's fiber; read-out: extension of APD90 (duration to repolarize 90%)): 42%

SMILES: O=C(NCC1CCCCN1)c1cc(OCC(F)(F)F)ccc1OCC(F)(F)F (centres unmarked) [Flecanide]
- inhibition at 3 µM (Purkinje's fiber; 3 μM, read-out: suppression of Vmax (maximum rate of rise for action potential)): 30%

SMILES: CC(=O)Nc1ccc(OCCNC(C)C)cc1.Cl [Reference 1, 4'-[2-(Isopropylamino)ethoxy]acetanilide Hydrochloride]
- inhibition at 30 µM (Purkinje's fiber; 30 μM, read-out: suppression of Vmax (maximum rate of rise for action potential)): 15%
- action on ventricular function (ventricular function): act suppressively on ventricular function
